{
  "source": "patent US20240269292A1",
  "key": {"Albumin": {"target": "Albumin (Homo sapiens, UniProt P02768)", "sequence (P02768 25-609, species assumed)": "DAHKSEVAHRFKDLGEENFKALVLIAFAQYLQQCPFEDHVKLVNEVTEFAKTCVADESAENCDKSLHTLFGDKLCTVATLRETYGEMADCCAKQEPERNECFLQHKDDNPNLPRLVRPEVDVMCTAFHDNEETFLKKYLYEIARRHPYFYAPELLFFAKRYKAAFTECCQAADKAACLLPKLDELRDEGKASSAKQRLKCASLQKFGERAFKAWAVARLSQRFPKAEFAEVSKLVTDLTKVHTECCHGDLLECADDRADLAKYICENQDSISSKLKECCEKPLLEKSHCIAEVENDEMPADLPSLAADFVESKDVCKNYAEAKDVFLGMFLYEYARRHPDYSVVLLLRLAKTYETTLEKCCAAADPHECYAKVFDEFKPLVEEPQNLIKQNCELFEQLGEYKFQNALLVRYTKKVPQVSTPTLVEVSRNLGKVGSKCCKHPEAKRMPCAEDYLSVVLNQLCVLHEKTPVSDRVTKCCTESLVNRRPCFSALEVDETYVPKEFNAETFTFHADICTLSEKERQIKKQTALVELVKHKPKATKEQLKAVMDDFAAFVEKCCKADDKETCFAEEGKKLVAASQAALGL", "assay": "Complexation of EY005-stearyl with complexation agent in methyl laurate, HPLC of pulled-down particulates and medium", "type": "binding", "settings": "1 hour", "method": "As described herein, formation of drug-complex particulates in which the complexation agent has high avidity for the drug can be quantified and verified experimentally. For example, the MTT-prodrug EY005-stearyl was admixed with known quantities of selected individual complexation agents. The EY005-stearyl-complexation agent mixture was then added to an appropriate dispersal medium (in this case, methyl laurate), and centrifuged to “pull down” or separate EY005-stearyl bound to complexation agent from unbound prodrug present in the dispersal medium. HPLC analysis of pulled down particulates and dispersal medium from EY005-stearyl content determined the fraction of MTT-prodrug that is bound to the complexation agent and calculation of the Kd value, the unbound to bound coefficient, for the MTT-prodrug/complexation agent pair. […]\nAs described herein, formation of drug-complex particulates in which the complexation agent has high avidity for the drug can be quantified and verified experimentally. For example, the MTT-prodrug EY005-stearyl was admixed with known quantities of selected individual complexation agents. […]\nTable 2 illustrates an example of a EY005-stearyl prodrug solubilized in methyl laurate in which various complexation agents were added, mixed, and incubated for 1 hour. The quantity of EY005-stearyl prodrug complexed with each complexation agent was determined by HPLC. […]"}, "[1]": {"assay": "Release assay of two formulations of EY005 prodrugs in the extended release system", "type": "physicochemical", "excerpt": "FIG. 36 illustrates data from a release assay of two representative formulations of EY005 prodrugs in the extended-release drug delivery system, with different durations of release.\nFor example, FIG. 36 illustrates release kinetics for examples of two distinct formulations of EY005 prodrugs in the complexation-based XRDDS, each with different conjugation moieties, as described herein: EY005-octadecyl (formulation 1) and EY005-8-mer peptide (formulation 2)."}, "carboxyesterase": {"test_system": "carboxyesterase", "assay": "In vitro cleavage of the prodrug ester bond by carboxyesterase (HPLC)", "type": "in vitro ADME", "settings": "37° C. in vitro, carboxyesterase 0.1 μg/mL", "method": "One example of an EY005-prodrug includes EY005-stearyl (FIG. 16A), wherein EY005 is linked via ester bond to stearyl alcohol, one member from the group of long-chain saturated fatty alcohols. On cleavage of the ester bond, the prodrug EY005-stearyl releases the EY005 MTT. […] Upon addition of EY005-stearyl prodrug to phosphate-buffered saline solution at 37° C. without esterase, the ester bond of the EY005-stearyl prodrug cleaves more slowly (˜36 hours) by hydrolysis (FIGS. 17A and 17C).\nEY005-stearyl was incubated at 37° C. in vitro with carboxyesterase (0.1 μg/mL), to simulate the ocular physiologic environment and the type of esterase that is readily abundant within the vitreous. […] Upon addition of EY005-stearyl prodrug to phosphate-buffered saline solution at 37° C. without esterase, the ester bond of the EY005-stearyl prodrug cleaves more slowly by hydrolysis (FIG. 17C).\nFIG. 18 illustrates theoretical data from an in vitro esterase assay showing rapid ester cleavage of two different EY005 prodrugs upon exposure to the esterase.\nOne specific example of EY005-prodrug includes EY005-stearyl (depicted in FIG. 16A), wherein EY005 is linked via ester bond to stearyl alcohol, one member from the group of long-chain saturated fatty alcohols. On cleavage of the ester bond, the prodrug EY005-stearyl releases the EY005 MTT. […]"}, "[2]": {"test_system": "retinal pigment epithelium (RPE) cells", "assay": "HQ-induced mitochondrial dysfunction in RPE cells (flavoprotein autofluorescence)", "type": "cell-based", "settings": "HQ-exposed RPE cells, versus elamipretide or native EY005", "method": "(§1) Cells are then treated with drug (or control phosphate-buffered saline (PBS) solution) and assayed for effects on mitochondrial dysfunction and other cellular changes.\n(§2) Mitochondrial dysfunction can be modeled using in vitro cell culture systems relevant to retinal disease. In one such system, retinal pigment epithelium (RPE) cells are cultured to post-confluence to establish a differentiated cell monolayer and are then assayed for mitochondrial dysfunction and effect of drugs for treatment of mitochondrial dysfunction (FIG. 5). In this model, mitochondrial dysfunction is induced by two exposures to nonlethal doses of hydroquinone (HQ) at day −3 and day 0. Hydroquinone (HQ), a well-known environmental toxicant ubiquitously present in Western lifestyle, is a biochemical inducer of mitochondrial dysfunction. […] Cells are then treated with a drug of interest (mitochondrial targeted peptide drug or a prodrug thereof) or control (phosphate-buffered saline (PBS) solution and assayed for effects on mitochondrial dysfunction, as measured by microscopy of flavoprotein autofluorescence (a measure of mitochondrial electron transport chain complex II decompensation) (FIG. 6)."}, "[3]": {"assay": "Complexation of EY005-stearyl with complexation agent in methyl laurate, HPLC of pulled-down particulates and medium", "type": "physicochemical", "settings": "1 hour", "method": "As described herein, formation of drug-complex particulates in which the complexation agent has high avidity for the drug can be quantified and verified experimentally. For example, the MTT-prodrug EY005-stearyl was admixed with known quantities of selected individual complexation agents. The EY005-stearyl-complexation agent mixture was then added to an appropriate dispersal medium (in this case, methyl laurate), and centrifuged to “pull down” or separate EY005-stearyl bound to complexation agent from unbound prodrug present in the dispersal medium. HPLC analysis of pulled down particulates and dispersal medium from EY005-stearyl content determined the fraction of MTT-prodrug that is bound to the complexation agent and calculation of the Kd value, the unbound to bound coefficient, for the MTT-prodrug/complexation agent pair. Using this type of assay, Kd values can be generated to identify the unbound to bound drug ratio for specific MTT-prodrug/complexation agent pairs in a selected dispersal medium (see, e.g., Table 2, below).\nAs described herein, formation of drug-complex particulates in which the complexation agent has high avidity for the drug can be quantified and verified experimentally. For example, the MTT-prodrug EY005-stearyl was admixed with known quantities of selected individual complexation agents. […] HPLC analysis of pulled down particulates and dispersal medium from EY005-stearyl content determined the fraction of MTT-prodrug that is bound to the complexation agent (binding capacity) and calculation of the Kd value, the unbound to bound coefficient, for the MTT-prodrug/complexation agent pair. […]\nTable 2 illustrates an example of a EY005-stearyl prodrug solubilized in methyl laurate in which various complexation agents were added, mixed, and incubated for 1 hour. The quantity of EY005-stearyl prodrug complexed with each complexation agent was determined by HPLC. Kd values were calculated as [unbound]/[bound] fraction prodrug under each condition. Binding capacity was calculated as the μg EY005-stearyl complexed per mg complexation agent."}, "[4]": {"test_system": "retinal pigment epithelium (RPE) cells", "assay": "Actin cytoskeleton disorganization (phalloidin) in HQ-exposed RPE cells", "type": "cell-based", "settings": "5 μM", "method": "as §1, §2"}, "[5]": {"assay": "Accelerated in vitro release assay, methyl laurate dispersal medium", "type": "physicochemical", "excerpt": "In all cases, all EY005 was rapidly released, in some cases within hours, and in all cases by day 3."}, "[6]": {"assay": "Hydrophobicity and aqueous solubility", "type": "physicochemical"}},
  "note": "Non-standard residues stand in square brackets, D forms with d. Residues, ends and D or L forms follow the SMILES beside them. *: point of attachment. Dmt = Cc1cc(O)cc(C)c1C[C@H](N)C(=O)O; X1 = CCCCCCCCCCCCCCCCCCO*",
  "data": [
    {"molecule": "CCCCCCCCCCCCCCCCCCOC(=O)[C@H](Cc1ccccc1)NC(=O)[C@H](CCCCN)NC(=O)[C@H](Cc1c(C)cc(O)cc1C)NC(=O)[C@H](N)CCCNC(=N)N", "note": "[EY005-stearyl, H-d-Arg-DMT-Lys-Phe(-O)-octadecyl] (H-[dR][Dmt]KF-X1)", "values": [
      {"measurement": "μg EY005-stearyl complexed per mg complexation agent", "setting": "Albumin", "result": 4.5, "unit": "μg per mg"},
      {"measurement": "Release kinetics profile", "setting": "[1]; FIG. 36", "result": "longer initial early burst"},
      {"measurement": "Durability of release", "setting": "[1]; two-phase kinetics", "result": 120, "unit": "days"},
      {"measurement": "cleavage of the prodrug ester bond, releasing EY005", "setting": "carboxyesterase", "result": "rapid cleavage of the prodrug ester bond"},
      {"measurement": "Potency for reversal of mitochondrial dysfunction relative to comparator", "setting": "[2]", "result": "efficacy equivalent to treatment with EY005 native peptide"},
      {"measurement": "μg EY005-stearyl complexed per mg complexation agent", "setting": "[3]; Cyclodextrin gamma", "result": 2.3, "unit": "μg per mg"},
      {"measurement": "μg EY005-stearyl complexed per mg complexation agent", "setting": "[3]; Lecithin", "result": 9.5, "unit": "μg per mg"},
      {"measurement": "μg EY005-stearyl complexed per mg complexation agent", "setting": "[3]; Silica microbeads", "result": 0.2, "unit": "μg per mg"},
      {"measurement": "Reversal of actin cytoskeleton disorganization", "setting": "[4]", "result": "normalized actin cytoskeleton dysfunction"},
      {"measurement": "Release rate of EY005", "setting": "[5]; magnesium stearate and albumin together", "result": "intermediate between that of formulations using either complexation agent alone"},
      {"measurement": "Release of EY005 into media", "setting": "[5]; no complexation agent", "result": "rapid release"},
      {"measurement": "Release of EY005 into media", "setting": "[5]; silica microbeads", "result": "rapid release"},
      {"measurement": "Hydrophobicity", "setting": "[6]", "result": "hydrophobic"}
    ]}
  ]
}
